“Also recorded” adds a separate entry of the source. Square brackets hold non-standard residues; d marks the D form. Peptide text beside a SMILES is read from it. * marks the point of attachment. BrAc = O=C(CBr)*

The test system of assay [1] is SMS-SB cells (CALLA- human leukemic cell line). The assay is described as follows: Growth of SMS-SB cells (viable cell counts daily). As to conditions: 10 μM, bolus or daily addition; FIG. 4. It counts as cell-based. Here is the method: FIG. 2--Effect of NEP Inhibitors on the Growth of Nall-1 and SMS-SB Cell Lines. The NEP inhibitors phosphoramidon (10 nM) and carboxyphenylethyl-Phe-β-Ala(10 μM) were added to cells plated at a density of 200,000 cells/ml. The inhibitors were added either once on Day 0 as a bolus (closed circle and square) or daily (open circle or triangle). The number of viable cells was determined daily. […] Cells counts were conducted daily. […] Nalm-6 and Nall-1 are leukemic cell lines generally representative of CALLA+ lymphoblastic leukemias. […] The number of viable cells was determined daily. In FIG. 2, the NEP inhibitors phosphoramidon (PA;10 nM) and carboxyphenylethyl-Phe-β-Ala (10 μM) were added to Nall-1 and, in a separate experiment, to SMS-SB cells plated at a density of 200,000 cells/ml. The inhibitors were added either once on Day 0 as a bolus (closed circle and square) or daily (open circle or triangle). The number of viable cells was determined daily.

Assay [2] concerns Nalm-6 cells (CALLA+ human leukemic cell line). The assay is described as follows: Growth of Nalm-6 cells (viable cell counts daily). It counts as cell-based. As to conditions: for growth of Nalm-6 cells: bolus or daily addition, FIG. 4; for growth of Nalm-6 cells in conditioned media: 50-50 mixture of fresh media and media from a five-day culture, FIG. 5; for cell growth of Nalm-6: nanomolar to micromolar concentrations, FIG. 1 and 3. The protocol: FIG. 1--Effect of NEP Inhibitors on the Growth of Nalm-6, A2/3, and J558 Cell Lines. The two NEP inhibitors phosphoramidon (1 μM) and carboxyphenylethyl-Phe-β-Ala (20 μM) were added to cells plated in quadruplicate at a density of 100,000 cells/ml in 24 well microtiter plates. The number of viable cells was determined daily. FIG. 3--Correlation of Cell Growth with NEP Activity. Nalm-6 cells were treated with 10 nM phosphoramidon added either as a bolus (circles) or daily (triangles). Cells were initially plated at 200,000 cells/ml. Control cells without added inhibitor are shown as squares. Aliquots were taken daily for determining cell density. To the remainder of the sample was added glutaryl-[…] and NEP activity determined. […] Cells counts were conducted daily. FIG. 5--The Effect of NEP Inhibitors on Nalm-6 Cells Grown in Fresh or Conditioned Media. Nalm-6 cells were grown in fresh media or a 50--50 mixture of fresh media and media taken from a five-day culture. The pH of the conditioned media was adjusted to that of the fresh media. Cell counts were performed daily. The efficacy of endopeptidase inhibitors may be assessed by determining cell numbers and the percent of viable cells (e.g., assessed by trypan blue exclusion) as a function of time in culture in the presence and absence of the endopeptidase inhibitors. In addition the level of neutral endopeptidase activity will be measured and correlated with these parameters. Since the enzyme is on the cell surface its activity can be measured by simply adding substrate to the cell culture. The kinetics of inactivation of purified enzyme can also be assessed. A graphical analysis of the inactivation constant (kobs) versus the inhibitor concentration can be plotted. If the inhibitor binds to the active site of the enzyme this graph should be hyperbolic. The data can then be analyzed in a double reciprocal plot of 1/kobs versus 1/[Inhibitor]. This should yield a straight line from which the dissociation constant for the inhibitor (Ki) and the maximal rate of inactivation k(inact) can be obtained. […] This type of analysis has previously been conducted to characterize the reaction of both phenylglyoxal and N-bromoacetyl-D-Leu-Gly with the enzyme. […] Nalm-6 and Nall-1 are leukemic cell lines generally representative of CALLA+ lymphoblastic leukemias. […] The number of viable cells was determined daily. In FIG. 2, the NEP inhibitors phosphoramidon (PA;10 nM) and carboxyphenylethyl-Phe-β-Ala (10 μM) were added to Nall-1 and, in a separate experiment, to SMS-SB cells plated at a density of 200,000 cells/ml. The inhibitors were added either once on Day 0 as a bolus (closed circle and square) or daily (open circle or triangle). The number of viable cells was determined daily. The inhibition of cell growth by these NEP specific inhibitors appeared somewhat transient and correlated with the recovery of NEP activity. […] Control cells without added inhibitor are shown as squares. Cells were initially plated at a density of 200,000 cells/ml. Aliquots were taken daily for determining cell density. To the remainder of the sample was added glutaryl-[…] and NEP activity was determined.

Assay [3] relates to neutral endopeptidase 24.11 (NEP). The assay is described as follows: Affinity labelling / irreversible inactivation of NEP. It counts as biochemical. The source says: (§1) The efficacy of endopeptidase inhibitors may be assessed by determining cell numbers and the percent of viable cells (e.g., assessed by trypan blue exclusion) as a function of time in culture in the presence and absence of the endopeptidase inhibitors. In addition the level of neutral endopeptidase activity will be measured and correlated with these parameters. Since the enzyme is on the cell surface its activity can be measured by simply adding substrate to the cell culture. The kinetics of inactivation of purified enzyme can also be assessed. A graphical analysis of the inactivation constant (kobs) versus the inhibitor concentration can be plotted. If the inhibitor binds to the active site of the enzyme this graph should be hyperbolic. The data can then be analyzed in a double reciprocal plot of 1/kobs versus 1/[Inhibitor]. This should yield a straight line from which the dissociation constant for the inhibitor (Ki) and the maximal rate of inactivation k(inact) can be obtained. […] This type of analysis has previously been conducted to characterize the reaction of both phenylglyoxal and N-bromoacetyl-D-Leu-Gly with the enzyme.

The target in assay [4] is T1, NEP (CALLA) on intact Nalm-6 cells (Homo sapiens, UniProt P08473).
T1 construct: NEP is a normal constituent of Nalm-6 cells; endogenous in cells; host or cells: Nalm-6 (human CALLA+ leukemic cell line)
The assay is described as follows: NEP activity of intact cells (glutaryl-Ala-Ala-Phe-MNA substrate). It counts as cell-based. The protocol: FIG. 3--Correlation of Cell Growth with NEP Activity. Nalm-6 cells were treated with 10 nM phosphoramidon added either as a bolus (circles) or daily (triangles). Cells were initially plated at 200,000 cells/ml. Control cells without added inhibitor are shown as squares. Aliquots were taken daily for determining cell density. To the remainder of the sample was added glutaryl-[…] and NEP activity determined. The efficacy of endopeptidase inhibitors may be assessed by determining cell numbers and the percent of viable cells (e.g., assessed by trypan blue exclusion) as a function of time in culture in the presence and absence of the endopeptidase inhibitors. In addition the level of neutral endopeptidase activity will be measured and correlated with these parameters. Since the enzyme is on the cell surface its activity can be measured by simply adding substrate to the cell culture. The kinetics of inactivation of purified enzyme can also be assessed. A graphical analysis of the inactivation constant (kobs) versus the inhibitor concentration can be plotted. […] The data can then be analyzed in a double reciprocal plot of 1/kobs versus 1/[Inhibitor]. […] To the remainder of the sample was added glutaryl-[…] and NEP activity was determined. […] The NEP activity of intact cells in the presence of the inhibitors has been measured during the course of experiments similar to those shown in FIG. 1. […]

The test system of assay [5] is Nall-1 cells (CALLA+ human leukemic cell line). Nature of the assay: Growth of Nall-1 cells (viable cell counts daily). As to conditions: nanomolar to micromolar concentrations; FIG. 2. It counts as cell-based. Here is the method:
FIG. 2--Effect of NEP Inhibitors on the Growth of Nall-1 and SMS-SB Cell Lines. The NEP inhibitors phosphoramidon (10 nM) and carboxyphenylethyl-Phe-β-Ala(10 μM) were added to cells plated at a density of 200,000 cells/ml. The inhibitors were added either once on Day 0 as a bolus (closed circle and square) or daily (open circle or triangle). The number of viable cells was determined daily. […] Nalm-6 and Nall-1 are leukemic cell lines generally representative of CALLA+ lymphoblastic leukemias. […] The number of viable cells was determined daily. In FIG. 2, the NEP inhibitors phosphoramidon (PA;10 nM) and carboxyphenylethyl-Phe-β-Ala (10 μM) were added to Nall-1 and, in a separate experiment, to SMS-SB cells plated at a density of 200,000 cells/ml. The inhibitors were added either once on Day 0 as a bolus (closed circle and square) or daily (open circle or triangle). The number of viable cells was determined daily.

A further assay concerns L3 myoblast cell line. The assay is described as follows: L3 myoblast cell line, formation of myotubules. It counts as cell-based.
The target in assay [6] is neutral endopeptidase 24.11 (NEP). Nature of the assay: Competitive inhibition of neutral endopeptidase (NEP). It counts as biochemical. As to conditions: read-out: Ki (competitive inhibitor).
Source text: as §1
NEP: glutaryl-Ala-Ala-Phe-MNA →glutaryl-Ala-Ala + Phe-MNA Aminopeptidase: Phe-MNA →Phe + MNA MNA =4-methoxy-2-naphthylamine

T1 sequence (P08473 whole entry): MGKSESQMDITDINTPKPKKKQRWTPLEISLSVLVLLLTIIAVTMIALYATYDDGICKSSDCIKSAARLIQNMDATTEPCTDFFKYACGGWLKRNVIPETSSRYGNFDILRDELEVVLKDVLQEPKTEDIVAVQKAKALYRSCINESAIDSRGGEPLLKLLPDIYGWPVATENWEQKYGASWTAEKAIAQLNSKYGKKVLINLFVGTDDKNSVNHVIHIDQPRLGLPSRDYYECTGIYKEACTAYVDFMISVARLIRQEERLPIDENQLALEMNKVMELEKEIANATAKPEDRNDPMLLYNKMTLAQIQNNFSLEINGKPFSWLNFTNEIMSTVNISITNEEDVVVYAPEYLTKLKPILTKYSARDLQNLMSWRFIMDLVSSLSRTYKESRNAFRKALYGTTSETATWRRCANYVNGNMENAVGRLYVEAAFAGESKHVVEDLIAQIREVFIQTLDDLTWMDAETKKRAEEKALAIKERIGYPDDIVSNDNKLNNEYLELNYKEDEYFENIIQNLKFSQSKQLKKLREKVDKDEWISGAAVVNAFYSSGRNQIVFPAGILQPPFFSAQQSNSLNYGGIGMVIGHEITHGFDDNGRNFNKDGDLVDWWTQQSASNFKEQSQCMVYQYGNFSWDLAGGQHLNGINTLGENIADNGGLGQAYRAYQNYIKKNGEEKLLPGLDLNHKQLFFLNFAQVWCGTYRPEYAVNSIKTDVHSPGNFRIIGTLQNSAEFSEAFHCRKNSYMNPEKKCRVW

As to `C[C@H](CS)C(=O)N1CCC[C@H]1C(=O)O` [captopril, HS--CH2 --CH(CH3)--CO--Pro], the “growth of CALLA- SMS leukemic cell line” value in assay [1] is listed as “neither thiorphan nor captopril affect the growth”. Further, the “growth of Nalm-6 cells” value in assay [2] (10 μM) is “without effect”.
With `C[C@H](NC(=O)[C@@H](Cc1ccccc1)NC(=O)CBr)C(=O)O` [bromoacetyl-D-Phe-Ala], the “irreversible inhibition / affinity labelling of NEP” value in assay [3] is on record as “not an affinity label of NEP”.
Turning to `O=C(O)CCNC(=O)[C@H](Cc1ccccc1)NC(Cc1ccccc1)C(=O)O` (stereo partly drawn) [carboxyphenylethyl-Phe-β-Ala], in assay [4], the “enzyme (NEP) activity in conditioned vs fresh media” value was “just as effectively inhibited in the conditioned media as in the fresh media”. In addition, in assay [2], the “growth of Nalm-6 cells in conditioned media” value was “the cells grow” and the “cell growth of Nalm-6” value is reported as “cell growth was inhibited; also recorded: inhibit cell growth”. Also, in assay [5], the “cell growth of Nall-1” value is listed as “cell growth was inhibited; also recorded: inhibit cell growth”.
As to `CC(C)C[C@H](NP(=O)(O)O[C@@H]1O[C@@H](C)[C@H](O)[C@@H](O)[C@H]1O)C(=O)N[C@@H](Cc1c[nH]c2ccccc12)C(=O)O` [phosphoramidon], the “enzyme (NEP) activity in conditioned vs fresh media” value in assay [4] was “just as effectively inhibited in the conditioned media as in the fresh media”. The “effect on L3 myoblast cell line (formation of myotubules)” value in the assay on L3 myoblast cell line is given as “unaffected”. Moreover, in assay [2] (10 μM), the “duration of inhibition of cell growth at higher inhibitor concentration” value is listed as “growth is inhibited during the entire course of the experiment”. Further, in assay [2], the “growth of Nalm-6 cells in conditioned media” value is listed as “the cells grow” and the “cell growth of Nalm-6” value is given as “cell growth was inhibited; also recorded: inhibit cell growth”. Also, the “growth of Nalm-6 cells in dialyzed conditioned media” value in assay [2] (conditioned media dialyzed against fresh media, cut-off 14,000) is listed as “cell growth was once again inhibited”. In addition, the “cell growth of Nall-1” value in assay [5] was “cell growth was inhibited; also recorded: inhibit cell growth”.
`CC(C)C[C@@H](NC(=O)CBr)C(=O)NCC(=O)O` [BADLG, N-bromoacetyl-D-Leu-Gly] (BrAc-[dL]-Gly-OH): the “irreversible inhibition / affinity labelling of NEP” value in assay [3] is “irreversible inhibitor”. The “mol incorporated per mol of enzyme” value in assay [3] (irreversible inhibition) was 1 mol per mol of enzyme. For the same compound, in assay [6], the inhibitory constant (Ki) is 5 mM.
On to `O=C(O)CNC(=O)C(CS)Cc1ccccc1` (stereo not shown) [thiorphan, HS--CH2 --CH(CH2 --.phi.)--CO--Gly], for which, in assay [1], the “growth of CALLA- SMS leukemic cell line” value is “neither thiorphan nor captopril affect the growth”. Further, the “growth of Nalm-6 cells” value in assay [2] (10 μM) was “inhibits the growth”.

As a reminder, the Ki is a measure of affinity in units of concentration, obtained from inhibition or displacement.
